Consider two compounds from US20160121003A1, “METHODS FOR DIAGNOSING AND […] OF LEWY BODY DEMENTIA BY ASSESSING DOPAMINE T[…]” (Alseres Pharmaceuticals, Inc., priority 2007, published 2016).

For data set [1], the target named is T1, dopamine transporter (Homo sapiens, UniProt Q01959). Kind of data set: Dynamic SPECT time-activity study in Lewy Body Dementia and control subjects. The class given is in vivo. Also on record: from tissue; host or cells: human brain striatum in vivo (Lewy Body Dementia subjects and controls). The text has this: The following example summarizes single photon emission computed tomographic (SPECT) image acquisition, analysis methods for Lewy Body Dementia research participants and healthy controls participating in an ^123I-altropane SPECT imaging study. The experiment is an open label study evaluating time-activity curves and striatal dopamine transporter occupancy over the first hour post bolus injection of ^123I-altropane using temporally well-resolved dynamic SPECT in Lewy Body Dementia subjects and similarly aged healthy control subjects. In addition, for the Lewy Body Dementia subjects, a second injection and scan is performed on each subject on a separate test day to evaluate the test/retest reproducibility data for both visual and quantitative analyses.
T1 sequence (Q01959 whole entry): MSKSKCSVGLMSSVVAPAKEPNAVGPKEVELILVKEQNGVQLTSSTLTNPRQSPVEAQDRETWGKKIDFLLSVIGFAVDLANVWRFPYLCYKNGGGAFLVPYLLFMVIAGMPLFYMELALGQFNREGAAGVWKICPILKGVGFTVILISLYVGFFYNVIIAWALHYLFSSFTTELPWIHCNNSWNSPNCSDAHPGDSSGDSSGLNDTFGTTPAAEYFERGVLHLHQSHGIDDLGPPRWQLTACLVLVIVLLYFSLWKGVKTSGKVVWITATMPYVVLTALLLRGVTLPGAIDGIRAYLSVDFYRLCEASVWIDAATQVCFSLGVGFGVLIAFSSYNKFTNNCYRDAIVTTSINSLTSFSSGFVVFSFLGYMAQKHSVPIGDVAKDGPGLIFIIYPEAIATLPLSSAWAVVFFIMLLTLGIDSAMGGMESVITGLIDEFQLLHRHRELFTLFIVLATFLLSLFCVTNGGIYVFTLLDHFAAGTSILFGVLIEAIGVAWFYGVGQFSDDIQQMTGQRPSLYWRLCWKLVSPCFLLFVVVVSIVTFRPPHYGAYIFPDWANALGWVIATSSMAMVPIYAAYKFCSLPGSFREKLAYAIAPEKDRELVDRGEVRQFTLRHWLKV
Fifteen idiopathic Lewy Body Dementia subjects are recruited through local advertising and word-of-mouth for enrollment in the study. All fifteen subjects complete two separate injection and SPECT scan sessions with approximately […] (8 mCi) of ^123I-altropane. Subjects undergo assessment by a neurology specialist.
Twelve healthy controls subjects are recruited for participation in a single scan session with ^123I-altropane using the identical SPECT image acquisition protocol as the Lewy Body Dementia subjects. Healthy subjects are evaluated by a neurology specialist to confirm the absence of neurologic illness.
SPECT scans are acquired for 60 min following the intravenous injection with […] (8.0 mCi) of ^123I altropane. A series of dynamic SPECT scans are obtained as five scans at 6 minutes per acquisition followed by three scans at 10 minutes per acquisition. The subject remains in the camera for the duration of the acquisition. Each SPECT study is acquired on a Philips PRISM 3000XP triple-headed SPECT camera (Cleveland, Ohio, USA) fitted with fan-beam collimators. Each head rotates 360 degrees, sampling every 3 degrees for a total of 120 raw projection images per head. Projection data are collected in a 128×128 matrix within a symmetric energy window centered at 159 kEv (+/−10%).
Data are re-constructed using filtered back projection and a simple ramp filter followed by a post hoc (3-D) standardized low pass filter. Attenuation correction is performed applying a Chang 0 correction and a mu of 0.11 cm^−1 using a standard or custom software. Regions of interest (ROIs) are placed in the 3-head data scans with individual ROI sampling of the left and right caudate and putamen and an occipital background region. […] The mean striatal SBR scores are calculated as the mean of the left and right caudate and putamen SBR scores. […]
The time-activity data for mean striatal count densities and occipital background for each of the 8 images acquired in the 60 minutes post injection sampling period are plotted to permit visual interrogation of the uptake and washout characteristics of ^123I-altropane in Lew Body Dementia and controls. […] The peak SBR is assessed for each subject for data acquired using 1, 2, and all 3 heads of imaging data. […]

The target in data set [2] is T2, dopamine transporter (Macaca fascicularis, UniProt Q9GJT6).
T2 construct: host or cells: monkey striatum
T2 sequence (Q9GJT6 whole entry): as the sequence (Q01959 whole entry) above, with V24M, I137V, P194S, S198G, D200N, S201G, S202P counted along it
The note with it: monkeys, in vivo and in vitro; density within range reported for the dopamine transporter; cited from earlier work.

In data set [3] the target is T1, dopamine transporter. The settings on record: in vitro; cited from earlier work.
For data set [4], the target named is T1, dopamine transporter. The note with it: cited from earlier work.
Data set [5] in a line: Safety and tolerability of imaging agent in patients. Format: in vivo, human.
For data set [6], the target named is T1, dopamine transporter. Nature of the data set: SPECT imaging of striatal binding potential, Lewy Body Dementia subjects versus controls. Format: in vivo. Also on record: from tissue; host or cells: human brain striatum in vivo (Lewy Body Dementia subjects and controls).

A value given as a limit tells only on which side of the number the result lay.

As to `COC(=O)C1C(c2ccc(F)cc2)CC2CCC1N2C/C=C/I` (stereo not drawn) [Altropane, 2β-carbomethoxy-3β-(4′-flurophenyl)-N-(3-iodo-E-allyl) nortropane], the “elimination from the brain” value on dopamine transporter [1] (most subjects) is “rapidly eliminate”. For the same compound, at dopamine transporter [2], the “regional binding in brain” value is recorded as “preferentially binds to dopamine rich areas of the striatum”. Further, the “binding site on the dopamine transporter” value on dopamine transporter [3] is recorded as “binds to a specific high-affinity site”. Also, at dopamine transporter [4], the “selectivity for dopamine transporter compared to serotonin transporter” value is given as “high selectivity”.

On to `COC(=O)[C@H]1[C@@H](c2ccc(F)cc2)C[C@@H]2CC[C@H]1N2C/C=C/[123I]` [^123I-Altropane, E-2β-carbomethoxy-3β-(4-fluorophenyl)-N-1(1-iodoprop-1-en-3) nortropane], for which the “test-retest reproducibility of total striatal binding” value at dopamine transporter [1] (15 LBD subjects, about 30 minutes commencing 15 minutes after injection) is “demonstrates reproducibility”. Besides, the “time post injection by which washout rates from striatum and occipital background are similar (stable striatal binding ratio)” value on dopamine transporter [1] (bolus injection) lay in the range of 20 to 30 min. In addition, the “time of peak striatal count densities post injection” value at dopamine transporter [1] (bolus injection, controls and Lewy Body Dementia subjects) amounted to 10 min. Further, the “time of peak SBR post injection” value on dopamine transporter [1] (one and two imaging head reconstructions) is ≥ 15 min. In addition, the safety and tolerability entry in data set [5] is “safe and well tolerated”. Further, the “striatal binding potential versus expected levels for age matched normal individuals” value at dopamine transporter [6] (Example 1, six Lewy Body Dementia subjects, i.v., SPECT) is reported as “reduced binding potential”. For the same compound, the “uptake in striatum, Lewy Body Dementia subjects versus control adults” value at dopamine transporter [6] (Example 3) is listed as “lower”. The “binding potential, Lewy Body Dementia group versus control group” value on dopamine transporter [6] (Example 3, 8 LBD and 16 control adults, one-tailed t-test) was “significantly lesser binding potential”.
